The values below come from patent US4707485A, “Substituted te[1]trahydroisoquinoline derivatives having β-adrenergic receptor activity” (Smithkline Beckman Corporation, priority 1985, dated 1987).

Where a name gives a salt, the structure may show the parent alone.

The target in this assay is T1, β-adrenergic receptors (Cavia porcellus, UniProt H0W3H1).
T1 construct: The ventricles and adipose tissue were carefully cut away to leave the atria as an intact pair; from tissue; host or cells: isolated guinea pig atria (intact pair)
T1 sequence (H0W3H1 1-470): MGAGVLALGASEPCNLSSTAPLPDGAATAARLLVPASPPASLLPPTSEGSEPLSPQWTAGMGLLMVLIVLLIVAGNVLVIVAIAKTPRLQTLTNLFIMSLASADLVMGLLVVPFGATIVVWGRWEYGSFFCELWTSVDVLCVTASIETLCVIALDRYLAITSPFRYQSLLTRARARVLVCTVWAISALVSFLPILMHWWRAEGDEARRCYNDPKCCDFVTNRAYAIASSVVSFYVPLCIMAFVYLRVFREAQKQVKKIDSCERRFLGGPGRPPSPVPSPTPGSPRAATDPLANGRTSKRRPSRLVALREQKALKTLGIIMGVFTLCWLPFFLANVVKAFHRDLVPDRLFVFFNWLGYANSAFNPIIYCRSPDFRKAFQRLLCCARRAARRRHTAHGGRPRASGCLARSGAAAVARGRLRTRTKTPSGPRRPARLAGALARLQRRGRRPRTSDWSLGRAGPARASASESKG
The experiment in a line: Inhibition of isoproterenol-induced enhancement of the rate of contraction of guinea pig atrial pairs in vitro (KB as β-antagonist). The note with it: guinea pig atria, versus isoproterenol, KB from dose ratio of isoproterenol EC50, 37° C., read-out: receptor dissociation constant (KB) as a β-antagonist. It is filed as cell-based. The method, then:
The β-blocking activity of the compounds of structure (I) can be assessed in a test for inhibition of isoproterenol-induced enhancement of the rate of contraction of guinea pig atrial pairs in vitro.
Inhibition of isoproterenol-induced enhancement of constricted guinea pig atria
A guinea pig (500-700 g) was injected with sodium pentobarbital (50 mg/kg, ip). When anesthetized, the heart was removed and placed in cold (5°-10° C.), oxygenated Krebs-Hensleit solution. The ventricles and adipose tissue were carefully cut away to leave the atria as an intact pair. A thread was tied to the apex of each atrium and the tissue suspended in a 50 ml tissue bath, attached to a force-displacement transducer. A diastolic tension of 1 g was maintained. Atrial contraction rate was measured using biotachometer, driven by the transducer amplifier.
A 30 minute stabilization period was allowed before obtaining the first dose response curve, during which time the tissue was washed several times with fresh solution. A concentration-response curve to isoprotererol was then determined, increasing agonist concentrations when the rate response to the previous dose had stabilized. After this determination, any β-antagonist activity of the test compound was measured via a concentration-response curve. […]

The Kb is the equilibrium dissociation constant of an antagonist, usually derived from a functional assay. With `COc1cc(CC2NCCc3cc(Cl)c(Cl)cc32)cc(OC)c1OC` (stereo not shown) [Example 1, 6,7-dichloro-1-(3,4,5-trimethoxybenzyl)-1,2,3,4-tetrahydroisoquinoline fumarate], the Kb came out at 67 nM.
